Assay results from US5652366A, “DI (1R)-(-)camphosulfonic acid) salt, preparation thereof and use thereof” (Rhone-Poulenc Rorer Pharmaceuticals Inc., priority 1995, dated 1997).
Read-outs that look alike come from different tables or passages of the source. One block for each compound: values may come before it.

What was measured:
rat adipocytes = assay: In vitro lipolysis assay in rat adipocytes (glycerol production); type: cell-based; details: Rattus norvegicus, Adipocyte; for EC50: read-out: EC50 (50% inhibition of glycerol production), unit nM in cell
Protocol: Adipose tissue is removed from anesthetized rats and rinsed twice in incubation medium (2.09 g sodium bicarbonate and 0.04 g EDTA, disodium salt, in 1 L Krebs buffer). Each rat (300-350 g) yields approximately 4 ml of adipose tissue. The adipose tissue (35 ml) is cut into small pieces with scissors and washed with incubation medium (50 ml). The mixture is poured into the barrel of a 50 ml syringe to which is attached a short piece of clamped tubing instead of a needle. The aqueous phase is allowed to drain. A second wash with incubation medium is passed through the syringe. The tissue is added to 50 ml of collagenase solution (collagenase(90 mg), bovine serum albumin (BSA) (500 mg), and 0.1 M calcium chloride solution (1 ml), in incubation medium (50 ml)) in a 1 L bottle. The mixture is shaken in an environmental at 37° C. for about 60 minutes under an atmosphere of 95% oxygen/5% carbon dioxide to effect digestion of the tissue. The dispersed cells are poured through 2 layers of cheese cloth into a 100 ml plastic beaker. The undigested clumps in the cloth are rinsed once with incubation medium (20 ml). The cells in the beaker are centrifuged in 2 plastic tubes for 30 seconds at room temperature at 300 rpm. The aqueous phase is aspirated from beneath the loosely packed layer of floating fat cells and discarded. The adipocytes are gently poured into a 250 ml plastic beaker containing 100 ml of rinse solution (1 g BSA per 100 ml incubation medium). After gentle stirring the centrifugation step is repeated. Another wash with rinse solution follows. The cells are pooled and their volume is estimated with a graduated cylinder. The adipocytes are diluted in twice their volume of assay buffer (incubation medium (120 ml), BSA (1.2 g), pyruvic acid (13 mg)).
The assay is performed in 20 ml plastic scintillation vials and the total assay volume is 4.2 ml. Assay buffer (2.5 ml), diluted adipocytes (1.5 ml), and a solution of the compound to be tested (12.3 μL) adenosine agonist (12.3 μl; varying concentration) is incubated in the environmental shaker for 15 minutes, then the reaction is started with norepinephrine solution (41.2 μL) (10 nM, in a carrier solution containing water (100 ml), BSA (4 mg), and 0.1 M EDTA (20 I. LL))and adenosine deaminase (1 μg/ml, 41.2 μl). After sixty minutes in the shaker the reaction is terminated by putting the vials on ice. […] The hard lipid layer is removed by aspiration and the aqueous layer is assayed for glycerol (400 μl of sample). The positive control is done in the absence of any adenosine agonist, substituting water in place of the solution to be tested.

[1] = system: myocardial infarct in Sprague-Dawley rats; assay: Cardioprotective activity in rat: myocardial infarct size after coronary occlusion/reperfusion; type: in vivo; details: control 63 ± 5, preconditioned 15 ± 8
Protocol: Adult Sprague-Dawley rats are anesthetized with Inactin (100 mg/kg i.p.). The trachea is intubated and positive pressure ventilation is provided via a small animal respirator. Catheters are placed in the femoral vein and artery for administration of compounds of the present invention to be tested, and measurement of blood pressure, respectively. An incision is made on the left side of the thorax over the pectoral muscles, and the muscles are retracted to expose the fourth intercostal space. The chest cavity is opened and the heart is exposed. A length of 4-0 proline suture is placed through the ventricular wall near the left main coronary artery and is used to interrupt blood flow through the cornary artery by tightening a slip-knot. A pulsed-Doppler flow probe (a device which measures blood flow) is placed on the surface of the heart to confirm that the coronary artery has been porperly identified. […]
For preconditioning the heart, the coronary artery is occluded (flow is interrupted) for a period of two minutes. […] Infarct size is determined by slicing the heart from apex to base into four to five slices 1-2 mm thick. […] The tissue slices are placed in a video image analysis system and infarct size is determined by planimetry. The effect of the compound of the present invention tested on myocardial infarct size is assessed and used to quantirate the extent of cardioprotective activity. […]

A1 and A2 receptors = details: reported developments; cited from earlier work
A2 receptor = details: relative to NECA; cited from earlier work
[2] = system: spontaneously hypertensive rat (SHR); assay: Oral antihypertensive activity in conscious spontaneously hypertensive rat (SHR); type: in vivo; details: for SHR MAP/%: D = decrease; for SHR HR/%: I = increase
Protocol: The oral antihypertensive activity of compounds of the invention were examined in conscious spontaneously hypertensive rats. The rats were anesthetized with sodium pentabarbatol (50 mg/kg i.p.). A telemetry transducer was implanted into the rats abdomen via midline incision. The cannula of the transducer was inserted into the abdomenal aorta to allow direct measurement of arterial pressure in the conscious SHR. The transducer was secured to the abdomenal wall. After recovery from surgery (minimum of seven days), the SHR were placed on a receiver plate and the transducer/transmitter was activated. Systolic, diastolic and mean arterial pressure and heart rate were recorded for 1.5 hours in the unrestrained conscious rat to establish a stable baseline. Each rat then received a single dose of the compound of the invention to be tested, or vehicle, and changes in arterial pressure and heart rate were monitored for 20 hours and recorded.

A2 adenosine receptor = A2 adenosine receptor (Rattus norvegicus, UniProt P30543); assay: biochemical; details: rat brain striatum membranes, 3H-CGS 21680; Table II; read-out: Adenosine Receptor Binding Activity/IC50 (nM) A2
Chain of A2 adenosine receptor (P30543 whole entry): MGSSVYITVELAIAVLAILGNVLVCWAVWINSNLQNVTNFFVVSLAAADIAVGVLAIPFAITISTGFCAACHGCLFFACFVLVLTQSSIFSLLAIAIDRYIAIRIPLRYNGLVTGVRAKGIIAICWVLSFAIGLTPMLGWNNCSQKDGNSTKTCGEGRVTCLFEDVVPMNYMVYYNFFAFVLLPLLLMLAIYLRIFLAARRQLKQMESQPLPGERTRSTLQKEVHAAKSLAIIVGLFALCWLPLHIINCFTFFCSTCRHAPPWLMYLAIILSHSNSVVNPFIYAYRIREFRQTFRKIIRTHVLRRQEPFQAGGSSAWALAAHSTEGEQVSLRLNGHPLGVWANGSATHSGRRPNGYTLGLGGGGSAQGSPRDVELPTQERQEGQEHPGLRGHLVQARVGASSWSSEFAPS

A1 adenosine receptor = biological target: T1, A1 adenosine receptor (Rattus norvegicus, UniProt P25099); assay: biochemical; details: rat whole brain membranes, 3H-CHA; Table II; read-out: Adenosine Receptor Binding Activity/IC50 (nM) A1
T1 sequence (P25099 1-326): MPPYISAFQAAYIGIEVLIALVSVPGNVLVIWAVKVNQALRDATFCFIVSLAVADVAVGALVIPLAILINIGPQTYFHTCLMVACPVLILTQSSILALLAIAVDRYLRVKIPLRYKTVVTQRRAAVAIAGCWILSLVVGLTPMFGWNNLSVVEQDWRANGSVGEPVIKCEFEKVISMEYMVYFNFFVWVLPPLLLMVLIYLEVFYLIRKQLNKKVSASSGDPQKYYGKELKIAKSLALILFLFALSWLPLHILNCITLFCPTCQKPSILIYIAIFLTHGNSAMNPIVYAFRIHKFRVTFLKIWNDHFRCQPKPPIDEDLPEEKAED
Protocol: Non-specific binding was assessed in the presence of 1 mM theophylline.
The assays were run in glass test tubes in duplicate at 25° C. Once the membranes were added, the tubes were vortexed and incubated at 25° C. for 60 minutes (A1 assay) or 90 minutes (A2 assay) on a rotary shaker. The assay tubes were vortexed halfway through the incubation and again near the end. The assays were terminated by rapid filtration through 2.4 cm GF/B filters using a Brandel Cell Harvestor. The test tubes were washed three times with cold 50 mM tris-HCl (pH 7.7 or 7.4), with filtration being completed within 15 seconds. The damp filter circles were placed in glass scintillation vials filled with 10 ml of Aquasol II (New England Nuclear). The vials were allowed to shake overnight on a rotary shaker and were placed into a liquid scintillation analyzer for two minute counts. IC50 values for receptor binding, i.e. the concentration at which a compound of the invention displaced the radiolabeled standard, were obtained using a curve-fitting computer program (RS/1, Bolt, Beranek and Newman, Boston, Mass.).

swine coronary arteries = assay: In vitro vasorelaxation in isolated swine coronary arteries (PGF2α-contracted rings); type: cell-based; details: Sus scrofa; 50% reduction in tension, 3 μM PGF2α; Table II; read-out: Vasorelaxation in Swine Coronary Artery/IC50
Protocol: Swine coronary arteries were obtained from a local slaughter house, dissected carefully and cleaned of fat, blood and adhering tissue. Rings approximately 2-3 mm wide were cut and transferred to water-jacketed tissue baths (10 ml) filled with warm (37° C.), oxygenated (O2 /CO2 :95%/5%) Krebs-Henseleit buffer and mounted on L-shaped hooks between stainless steel rods and a force transducer. […] Rings were equilibrated for 90 minutes with frequent buffer changes at a resting tension of 5 g In order to assure optimal tension development, arterial rings were primed twice with 36 mM KCl and once with 10 μm. PGF2α, before being exposed to 3 μM PGF2α. […] Tension achieved with 3 μM PGF2α was considered .equivalent to 100%; all other values were expressed as a percentage of that maximum.

[3] = system: normotensive anesthetized rat; assay: In vivo mean arterial pressure and heart rate in normotensive anesthetized rat; details: iv
Protocol: Normotensive rats were anesthetized with sodium pentobarbital (50 mg/kg, j.p.) and placed on a heated surgical table. Cannulas were inserted into the femoral artery and […] to allow the measurement of arterial pressure and to facilitate the intravenous administration of test compounds. The animals was allowed to equilibrate for 10 minutes after surgery. Mean arterial pressure was continuously measured and recorded and heart rate was monitored using the arterial pressure pulse to trigger a cardiotachometer. After baseline parameters were established and recorded, increasing doses (1, 3, 10, 30, 100, 300 and 1000 μg/kg) of the compound of the invention to be tested were administered intravenously. Maximal changes in the cardiovascular parameters were observed after each dose of the adenosine agonist. Only one compound was administered per rat.

EC50 (rat adipocytes): 5.4 nM
SMILES: CCNC(=O)[C@H]1C[C@@H](n2cnc3c(N[C@H](CC)Cc4sccc4Cl)ccnc32)[C@H](O)[C@@H]1O (single isomer, unassigned) [Example 39, [1S-[1α,2β,3β,4α(S*)]]-4-[7-[[2-(3-chloro-2-thienyl)-1-ethylethyl]amino]-3 H-imidazo[4,5-b]pyridin-3-yl]-N-ethyl-2,3-dihydroxycyclopentane-carboxamide]
% Risk Area Infarcted ([1]; Compound High: i.v. bolus 10 μg/kg, then 1 μg/kg/minute from 30 minutes prior to occlusion to 2 hours after reperfusion): 18 ± 5%
% Risk Area Infarcted ([1]; Compound Low: i.v. bolus 1 μg/kg, then 0.1 μg/kg/minute for 30 minutes prior to occlusion): 23 ± 9%

SMILES: Nc1nc(Nc2ccccc2)nc2c1ncn2[C@@H]1O[C@H](CO)[C@@H](O)[C@H]1O [CV-1808]
A2/A1 ratio (A1 and A2 receptors): 0.19
fold less potent than NECA in affinity for the A2 receptor (A2 receptor): 10 fold

IC50 (A2 adenosine receptor): 12.9 nM
IC50 (A1 adenosine receptor): 2.69 nM
EC50 (rat adipocytes): 0.76 nM
EC50 (swine coronary arteries): 21 nM
SMILES: CCNC(=O)[C@H]1C[C@@H](n2cnc3c(N[C@H](C)Cc4ccc(Cl)s4)ncnc32)[C@H](O)[C@@H]1O [Example 6, (-)-[2S-[2α,3α-dihydroxy-4-β-[N6-[2-(5-chloro-2-thienyl)-(1R)-1-methylethyl]amino]-9-adenyl]cyclopentane]-1-β-N-ethylcarboxamide]
SHR MAP/% ([2]; 1 mg/kg): 18%
SHR HR/% ([2]; 1 mg/kg): 7%

IC50 (A2 adenosine receptor): 63.1 nM
IC50 (A1 adenosine receptor): 87.1 nM
EC50 (rat adipocytes): 89 nM
EC50 (swine coronary arteries): 82 nM
SMILES: CCNC(=O)[C@H]1C[C@@H](n2cnc3c(NCCc4cccs4)ncnc32)[C@H](O)[C@@H]1O [Example 26, (-)-N^6-[(thiophen-2"-yl)ethan-2-yl]carbocyclic adenosine-5'-N-ethyl carboxamide]
ED25 ([3]; dose lowering heart rate by 25%, read-out: Blood Press/Heart Rate Anesthetized Rat HR/ED25): > 30 µg/kg
ED25 ([3]; dose lowering mean arterial pressure by 25%, read-out: Blood Press/Heart Rate Anesthetized Rat MAP/ED25): 4 µg/kg
SHR MAP/% ([2]; 2.5 mg/kg): 41%
SHR HR/% ([2]; 2.5 mg/kg): 3%
inhibition at 1 µM (rat adipocytes; 1 μM, versus positive control, read-out: % Inhibition of glycerol production): 96%
